The results in this text go back to patent US20240122180A1, “FUNGICIDAL HALOMETHYL KETONES AND HYDRATES AND THEIR MIXTURES” (FMC Corporation, priority 2020, published 2024).

What all share (type): in vivo
Assay [1] has as its system Puccinia recondita f. sp. tritici (the causal agent of wheat leaf rust). Nature of the assay: Test B: preventive spray on wheat seedlings, disease rating (100 = 100% control; * 50 ppm, ** 10 ppm, *** 250 ppm). Particulars: 100 = 100% disease control. The gist of the method: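 Wheat seedlings sprayed to run-off with compound in acetone/water (50/50) containing 250 ppm PEG400, inoculated next day with Puccinia recondita f. sp. tritici spores. Held 24 h saturated at 20° C, then 6 days at 20° C; disease control rated 0–100 relative to controls.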

Assay [2] has as its system Zymoseptoria tritici (the causal agent of wheat leaf blotch). Nature of the assay: Test D: preventive spray on wheat seedlings, disease rating (100 = 100% control; * 50 ppm, ** 10 ppm, *** 250 ppm). The note with it: 250 ppm test suspension, 100 = 100% disease control; for pest or weed control at 250 ppm: Zymoseptoria tritici. From the text: (§1) General protocol for preparing test suspensions for Tests A-E: the test compounds were first dissolved in acetone in an amount equal to 3% of the final volume and then suspended at the desired concentration (in ppm) in acetone and purified water (50/50 mix by volume) containing 250 ppm of the surfactant […] (polyhydric alcohol esters). The resulting test suspensions were then used in Tests A-E.
The test solution was sprayed to the point of run-off on wheat seedlings. The following day the seedlings were inoculated with a spore suspension of Zymoseptoria tritici (the causal agent of wheat leaf blotch) and incubated in a saturated atmosphere at 24° C. for 48 h, and then moved to a growth chamber at 20° C. for 17 days, after which time disease ratings were made.
(§2) Results for Tests A-E are given in Table A. In the Table, a rating of 100 indicates 100% disease control and a rating of 0 indicates no disease control (relative to the controls). An asterisk “*” or a double asterisk “**” or a triple asterisk “***” next to the rating value indicates a 50 ppm, 10 ppm and 250 ppm test suspension was used, respectively. A dash (-) indicates the compound was not tested.

The test system of assay [3] is Blumeria graminis f. sp. tritici (the causal agent of wheat powdery mildew). Nature of the assay: Test E: preventive spray on wheat seedlings, visual disease rating (100 = 100% control; * 50 ppm, ** 10 ppm, *** 250 ppm). The note with it: 100 = 100% disease control; for Test E disease control rating / pest or weed control at 250 ppm: 250 ppm test suspension.
Source text: as §1
The test suspension was sprayed to the point of run-off on wheat seedlings. The following day the seedlings were inoculated with a spore dust of Blumeria graminis f. sp. tritici, (also known as Erysiphe graminis f. sp. tritici, the causal agent of wheat powdery mildew) and incubated in a growth chamber at 20° C. for 8 days, after which time visual disease ratings were made.
as §2

Assay [4] deals with Phakopsora pachyrhizi (the causal agent of Asian soybean rust). Description: Test A: preventive spray on soybean seedlings, visual disease rating (100 = 100% control; * 50 ppm, ** 10 ppm, *** 250 ppm). Particulars: 100 = 100% disease control. The method, boiled down:
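Soybean seedlings sprayed to run-off with compound suspended in acetone/water with 250 ppm PEG400 surfactant, inoculated next day with P. pachyrhizi spores. Kept 24 h saturated at 22 °C, then 8 days at 22 °C before visual rating of disease control (0-100) relative to controls.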

For assay [5] the test system is unchanged. Nature of the assay: Test F: Compound 32 or 64 alone and in mixtures on soybean seedlings, observed (Obsd) and Colby expected (Exp) disease control. Particulars: Phakopsora pachyrhizi; for pest or weed control at 45.86 ppm: pyraclostrobin 45.860 ppm alone; for pest or weed control at 137.503 ppm: pyraclostrobin 137.503 ppm alone; for pest or weed control at 10.165 ppm: prothioconazole 10.165 ppm alone; for pest or weed control at 16.339 ppm: prothioconazole 16.339 ppm alone. From the text:
The general protocol for preparing test compositions for Test F was as follows: Compound 32, Compound 64, azoxystrobin, benzovindiflupyr, bixafen, chlorothalonil, cyproconazole, epoxiconazole, fenpropidin, fenpropimorph, fluindapyr, flutriafol, fluxapyroxad, metominostrobin, picoxystrobin, prothioconazole, pydiflumetofen, pyraclostrobin, tebuconazole and trifloxystrobin were obtained as unformulated, technical-grade materials. Copper hydroxide and mancozeb was obtained as a formulated product marketed under the trademarks KOCIDE 3000 and MANZATE, respectively. Unformulated materials were first dissolved in acetone and then suspended at the desired concentration (in ppm) in acetone and purified water (50/50 mix by volume) containing 250 ppm of the surfactant Trem® 014 (polyhydric alcohol esters). Formulated materials were dispersed in sufficient water to give the desired concentration, and neither organic solvent nor surfactant was added to the suspension. The resulting test mixtures were then used in Test F. The tests were run on four individual plants and the results reported as the mean average of the four plants.
The presence of a synergistic effect between two active ingredients was established with the aid of the Colby equation (see Colby, S. R. “Calculating Synergistic and Antagonistic Responses of Herbicide Combinations”, Weeds, (1967), 15, 20-22):
Using the method of Colby, the presence of a synergistic interaction between two active ingredients is established by first calculating the predicted activity, p, of the mixture based on activities of the two components applied alone. If p is lower than the experimentally established effect, synergism has occurred. In the equation above, A is the fungicidal activity in percentage control of one component applied alone at rate x. The B term is the fungicidal activity in percentage control of the second component applied at rate y. The equation estimates p, the expected fungicidal activity of the mixture of A at rate x with B at rate y if their effects are strictly additive and no interaction has occurred.
The test mixture was sprayed to the point of run-off on soybean seedlings. The following day the seedlings were inoculated with a spore suspension of Phakopsora pachyrhizi (the causal agent of Asian soybean rust) and incubated in a saturated atmosphere at 22° C. for 24 h and then moved to a growth chamber at 22° C. for 8 days, after which time visual disease ratings were made.
Results for Test F are given in Tables B-1 through I-1 for Compound 32 and Tables B-2 through I-2 for Compound 64. Each table corresponds to a set of evaluations performed together at the same time. In each table, a rating of 100 indicates 100% disease control and a rating of 0 indicates no disease control (relative to the controls). Columns labeled “Obsd” indicate the average of results observed from test run on four individual plants. Columns labeled “Exp” indicate the expected value for each treatment mixture using the Colby equation.

The mark [6] stands for this setting: Puccinia recondita, 50 ppm test suspension, wheat seedlings.
Setting [7] is: 50 ppm test suspension, 0 = no control.
[8] abbreviates: Blumeria graminis, wheat seedlings.
[9] abbreviates: 10 ppm test suspension, 0 = no control.
Where [10] appears, read: 10 ppm test suspension, wheat seedlings.
Where [11] appears, read: 10 ppm test suspension, soybean seedlings.

Marks after values point to notes of the source that are not given here.

On to `CCOC(=O)c1cnn(Cc2ccc(OCC3(C(F)(F)F)OCCO3)cn2)c1` [compound 124], for which the pest or weed control (usually how far the test organism was held down) at 50 ppm in assay [1] (setting [6]) worked out at 0%; in assay [3] (Blumeria graminis, 50 ppm test suspension, wheat seedlings), 98%. In assay [2] (wheat seedlings), this compound yielded a pest or weed control at 250 ppm of 92%.

For `O=[N+]([O-])c1ccc(OCC(O)(O)C(F)(F)F)cc1` [compound 280], in assay [1] (setting [7]), the “Test B disease control rating” value stood at 100%. Also, the “Test A disease control rating” value in assay [4] (setting [7]) was determined as 100%. Further, the “Test D disease control rating” value in assay [2] (0 = no control) was 99*** %. In addition, the “Test E disease control rating” value in assay [3] (0 = no control) is listed as 99*** %.

`CCOC(=O)c1cnn(Cc2ccc(OCC(O)(O)C(F)(F)F)cc2)c1` [Compound 1, ethyl 1-[[4-(3,3,3-trifluoro-2,2-dihydroxypropoxy)phenyl]methyl]-1H-pyrazole-4-carboxylate]: the pest or weed control at 250 ppm in assay [1] (Puccinia recondita, 250 ppm test suspension, wheat seedlings) worked out at 91%; in assay [2] (wheat seedlings) it was 97%; in assay [3] (setting [8]) it was 81%.

As for `CCOC(=O)c1cnn(Cc2ccc(OCC(O)(O)C(F)(F)F)c(F)c2)c1` [Compound 264], in assay [1] (setting [9]), the “Test B disease control rating” value is reported as 80%. Besides, in assay [4] (setting [9]), the “Test A disease control rating” value is 99%. Further, the “Test D disease control rating” value in assay [2] (0 = no control) is 95*** %. Moreover, in assay [3] (0 = no control), the “Test E disease control rating” value was 96*** %.

For `CCS(=O)(=O)Cc1ccc(OCC(O)(O)C(F)(F)F)cc1` [compound 29], the “Test B disease control rating” value in assay [1] (setting [10]) is 28%. In addition, the “Test A disease control rating” value in assay [4] (setting [11]) came out at 84%. Besides, the “Test D disease control rating” value in assay [2] (wheat seedlings) is recorded as 0*** %. In assay [3] (wheat seedlings), the “Test E disease control rating” value was 79*** %.

`CC(=O)N1CC(c2ccc(OCC(O)(O)C(F)(F)F)cc2)C1` [compound 384]: the “Test B disease control rating” value in assay [1] (setting [7]) is listed as 83%. Also, the “Test A disease control rating” value in assay [4] (setting [7]) is listed as 99%. In addition, the “Test D disease control rating” value in assay [2] (0 = no control) was 48*** %. Also, the “Test E disease control rating” value in assay [3] (0 = no control) was 87*** %.

For the compound `CCOC(=O)c1cnn(Cc2ccc(OCC(O)(O)C(F)(F)F)c(Cl)c2)c1` [Compound 459], the “Test B disease control rating” value in assay [1] (setting [7]) is listed as 97%. For the same compound, in assay [4] (setting [7]), the “Test A disease control rating” value stood at 100%. In addition, in assay [2] (0 = no control), the “Test D disease control rating” value is on record as 37*** %. Also, in assay [3] (0 = no control), the “Test E disease control rating” value was 0*** %.

On to `CCOC(=COc1ccc(NC(=O)c2ccccc2F)cc1)C(F)(F)F` [compound 461], for which the “Test B disease control rating” value in assay [1] (setting [7]) was 0%. The “Test A disease control rating” value in assay [4] (setting [7]) was determined as 0%. Further, in assay [2] (0 = no control), the “Test D disease control rating” value is 53*** %. In addition, the “Test E disease control rating” value in assay [3] (0 = no control) is 69*** %.

For `CCOC(=O)c1cnn(Cc2ccc(N(C#N)CC(O)(O)C(F)(F)F)cc2)c1` [compound 381], the “Test B disease control rating” value in assay [1] (setting [9]) came to 28%. The “Test A disease control rating” value in assay [4] (setting [9]) was 25%. Besides, the “Test D disease control rating” value in assay [2] (0 = no control) was 0*** %. The “Test E disease control rating” value in assay [3] (0 = no control) was 69*** %.

As for `CCOC(=O)c1cnn(Cc2ccc(O/C=C(\OCC)C(F)(F)F)c(I)c2)c1` [compound 374], the “Test B disease control rating” value in assay [1] (setting [7]) came to 0%. Moreover, the “Test A disease control rating” value in assay [4] (setting [7]) is 0%. For the same compound, the “Test D disease control rating” value in assay [2] (0 = no control) was 0*** %. Moreover, in assay [3] (0 = no control), the “Test E disease control rating” value is 76*** %.

Turning to `CCO/C(=C\Oc1ccc(Cn2cc(C(=O)OCC(=O)c3ccccc3)cn2)cc1)C(F)(F)F` [compound 244], in assay [1] (setting [10]), the “Test B disease control rating” value came out at 0%. Further, the “Test A disease control rating” value in assay [4] (setting [11]) is recorded as 100%. Moreover, in assay [2] (wheat seedlings), the “Test D disease control rating” value was 0*** %. Moreover, the “Test E disease control rating” value in assay [3] (wheat seedlings) was 0*** %.

In turn, `COC(=O)c1ccc(OCC(O)(O)C(F)(F)F)cc1` [Compound 229, methyl 4-(3,3,3-trifluoro-2,2-dihydroxypropoxy)phenylcarboxylate] came in with a pest or weed control at 50 ppm in assay [1] (setting [6]) of 100%. Moreover, the pest or weed control at 250 ppm in assay [2] (wheat seedlings) came to 96%; in assay [3] (setting [8]), 99%.

Take `CCOC(=O)c1cnn(COc2cccc(OCC(O)(O)C(F)(F)F)c2)c1` [compound 320]: the pest or weed control at 10 ppm in assay [1] (Puccinia recondita, 10 ppm test suspension, 0 = no control) worked out at 68%; in assay [4] (Phakopsora pachyrhizi, 10 ppm test suspension, 0 = no control), 89%. Further, the pest or weed control at 250 ppm amounted to 81% in assay [2] (0 = no control) and 91% in assay [3] (Blumeria graminis, 0 = no control).

In the case of `COC(=O)N(OC)c1ccccc1COc1ccn(-c2ccc(Cl)cc2)n1` [pyraclostrobin], in assay [5] (Table H-1), the pest or weed control at 45.86 ppm came to 35% and the pest or weed control at 137.503 ppm was found to be 45%. Besides, in assay [5] (Table H-2), the pest or weed control at 45.86 ppm came to 35% and the pest or weed control at 137.503 ppm was 45%.

As for `OC(Cc1ccccc1Cl)(Cn1nc[nH]c1=S)C1(Cl)CC1` (stereo not shown) [prothioconazole], in assay [5] (Table G-1), the pest or weed control at 10.165 ppm is 7% and the pest or weed control at 16.339 ppm was 65%. Moreover, in assay [5] (Table G-2), the pest or weed control at 10.165 ppm was 7% and the pest or weed control at 16.339 ppm amounted to 65%.

On to `CC(=O)N1CC(c2ccc(OCC3(C(F)(F)F)OCCO3)cc2)C1` [compound 372], for which the “Test B disease control rating” value in assay [1] (setting [7]) is 28%. Also, in assay [4] (setting [7]), the “Test A disease control rating” value is 97%. For the same compound, the “Test D disease control rating” value in assay [2] (0 = no control) was 99*** %. Moreover, the “Test E disease control rating” value in assay [3] (0 = no control) is reported as 99*** %.
